Laboratory results from paper PMC8319603, “Developing C2-Aroyl Indoles as Novel Inhibitors of IDO1 and Understanding Their Mechanism of Inhibition via Mass Spectroscopy, QM/MM Calculations and Molecular Dynamics Simulation” (Frontiers in Chemistry, 2021).
Where “and” joins values, the source holds several entries; their conditions need not be identical. Equal entries are not always repeated.

Key:
[1] = Plasma protein binding in rat plasma (rapid equilibrium dialysis); assay type: in vitro ADME; settings: for Rat plasma protein binding %Ge bound / Rat plasma protein binding %Ge free: 10 μM; for fraction unbound at 10 μM: pH 7.4
From the text: (§1) For the DMPK studies of the compound 8a-d we used rat as well as human plasmas. Rat plasma was purchased from Hylasco Biotechnology Pvt. Ltd.™ Hyderabad, India. We have not performed any in vivo experiments for this manuscript neither for animals nor for humans. […] Also please note the blood plasma was obtained from the blood of Dr Srinivas R Maddi, who donated it and is the co-author of this article. The DMPK studies were supplemented by kinetic solubility, Log p and Log D determinations, PAMPA permeability, Metabolic and Plasma stability in rat and human, and finally the plasma folding in rat and human. A thorough discussion of each step is mentioned in the supplementary information. […]
(§2) Plasma protein binding in rat and human plasma: To evaluate the ability of compound to bind the plasma proteins, the most common approach of plasma protein binding using rapid equilibrium dialysis device ( RED inserts) used. Compounds were tested at a final concentration of 10 μM in mouse, rat and human plasma. An aliquot of 500 μL plasma containing compound 3k was added in first half (plasma side) of the well of RED device. An aliquot of 300 μL of 100 mM sodium phosphate buffer pH 7.4 was added in the second half (buffer side) of the Insert. The plate containing plasma and […]

[2] = Plasma protein binding in human plasma (rapid equilibrium dialysis); assay type: in vitro ADME; settings: pH 7.4, human plasma
From the text: as §1, §2

[3] = Metabolic stability in human liver microsomes; assay type: in vitro ADME
Experimental: Metabolic stability in mouse, rat and human liver microsomes: Metabolic stability was defined as the percentage of parent compound lost over time in the presence of a metabolically active test system.
The incubation mixtures consisted of liver microsomes 1.0 mg microsomal protein /mL , compound 1 uM or positive control verapamil, 1 uM . The reactions were initiated by adding 1 mM NADPH.
Reactions without NADPH at 0 and 60 min were also incubated to rule out non-NADPH metabolism or chemical instability in the incubation buffer. All reactions were terminated using 200 uL of ice-cold acetonitrile containing internal standard 200 ng/mL of telmisartan at 0, 5, 15, 30 and 60 min. The vials were centrifuged at 4000 rpm for 20 min. The supernatants thus obtained were analyzed on LC-MS/MS to monitor the disappearance of compound. […]

[4] = Log D determination (octanol/buffer); assay type: physicochemical; settings: phosphate buffer at pH 7.4
From the text: For the DMPK studies of the compound 8a-d we used rat as well as human plasmas. Rat plasma was purchased from Hylasco Biotechnology Pvt. Ltd.™ Hyderabad, India. We have not performed any in vivo experiments for this manuscript neither for animals nor for humans. […] Also please note the blood plasma was obtained from the blood of Dr Srinivas R Maddi, who donated it and is the co-author of this article. The DMPK studies were supplemented by kinetic solubility, Log p and Log D determinations, PAMPA permeability, Metabolic and Plasma stability in rat and human, and finally the plasma folding in rat and human. A thorough discussion of each step is mentioned in the supplementary information.
20 µL of IDO1/TDO2 protein (1µg/ml concentration) was added and incubates for 10 min. After that 20 µL of 2 mM L-tryptophan was added and then treated with different test compounds concentration (10 µM, 5 µM, 1 µM, 500 nM, 250 nM). The plate was then sealed well for 2hr incubation process at 37°C. […] The 100 µL of supernatant was transferred in fresh 96 well plate and treated with 100 µL of freshly prepared 2% Ehlrich reagent which was then analyzed by absorbance plate reader at 492 nm to measure the extent of kynurenine formation. […] The IC50 values were calculated in triplicate by using GraphPadPrism Software (GraphPadPrism. Version 5.01 program).22, 23 […]
Log P determination: The partition coefficient was determined by adding compounds to 2 mL deep well plate containing Octanol/water mixture and vortexed the plate for 2 hours at 1200 rpm on a plate shaker. […] Octanol and buffer layers were analysed by HPLC -UV by adjusting the needle height for each Octanol and buffer and the amount of compound distributed i nto each phase was calculated
Log D determination: The distribution coefficient was determined by adding compounds to 2 mL deep well plate containing Octanol/Buffer mixture and vortexed the plate for 2 hours at 1200 rpm on a plate shaker. […]
adjusting the needle height for each Octanol and buffer and the amount of compound distributed into each phase was calculated. […]

[5] = Metabolic stability in monkey liver microsomes; assay type: in vitro ADME
[6] = 10 μM, read-out: Human plasma protein binding %Ge bound (converted)
[7] = 10 μM, read-out: Human plasma protein binding %Ge free
[8] = read-out: Fraction unbound in human plasma

## CC(=O)NCCc1c(C(=O)c2cc(C(F)(F)F)cc(C(F)(F)F)c2)[nH]c2ccccc12 [8a]
[1]
  Rat plasma protein binding %Ge bound: 97.3%
  Rat plasma protein binding %Ge free: 2.7%
  fraction unbound at 10 μM: 0.027
[2]; [6]
  fraction unbound at 10 μM: 0.0064
[2]; [7]
  fraction unbound at 10 μM: 0.0064
[2]; [8]
  fraction unbound at 10 μM: 0.0064
[3]
  Human liver microsomal % QH (hepatic extraction ratio): 73.9%
  Metabolic stability in liver microsomes: unstable
[4]
  logD: 1.32
[5]
  Monkey liver microsomal stability % QH (hepatic extraction ratio): 97%

## CC(=O)NCCc1c(C(=O)c2ccc([N+](=O)[O-])cc2)[nH]c2ccccc12 [8d]
[1]
  Rat plasma protein binding %Ge bound: 82.1%
  Rat plasma protein binding %Ge free: 17.9%
  fraction unbound at 10 μM: 0.179
[2]; [6]
  fraction unbound at 10 μM: 0.0952
[2]; [7]
  fraction unbound at 10 μM: 0.0952
[2]; [8]
  fraction unbound at 10 μM: 0.095
[3]
  Human liver microsomal % QH (hepatic extraction ratio): 33% and 32.6%
  Metabolic stability in liver microsomes: moderately stable
[4]
  logD: 1.51
[5]
  Monkey liver microsomal stability % QH (hepatic extraction ratio): 74%

## COC(=O)NCCc1c(C(=O)c2ccccc2)[nH]c2ccccc12 [8e]
[1]
  Rat plasma protein binding %Ge bound: 95.9%
  Rat plasma protein binding %Ge free: 4.1%
  fraction unbound at 10 μM: 0.041
[2]; [6]
  fraction unbound at 10 μM: 0.0213
[2]; [7]
  fraction unbound at 10 μM: 0.0213
[2]; [8]
  fraction unbound at 10 μM: 0.021
[3]
  Human liver microsomal % QH (hepatic extraction ratio): 58%
  Metabolic stability in liver microsomes: moderately stable
[4]
  logD: 2.95
[5]
  Monkey liver microsomal stability % QH (hepatic extraction ratio): 96%
